In patent US20190388425A1, “SUBSTITUTED IMIDAZOPYRIDINPYRIMIDINES” (Bayer Pharma Aktiengesellschaft, priority 2017, published 2019) one finds IC50 data, which are given here for 18 compounds.

Structures are written as SMILES. pIC50: −log10 of the molar value.

This assay concerns the target T1, human full-length MKNK1 (Homo sapiens, UniProt Q9BUB5, T385D).
T1 construct: GST (N); purchased Carna Biosciences 02-145; host or cells: insect cells (baculovirus expression system)
The assay is described as follows: MKNK1 kinase high ATP assay (TR-FRET). In kind it is biochemical. The following applies: TR-FRET, 2 mM ATP (high ATP), 15 min preincubation with enzyme, 30 min reaction at 22° C.; read-out: MKNK1 IC50. On the procedure: MKNK1 Kinase High ATP Assay
MKNK1-inhibitory activity at high ATP of compounds of the present invention after their preincubation with MKNK1 was quantified employing the TR-FRET-based MKNK1 high ATP assay as described in the following paragraphs.
As substrate for the kinase reaction the biotinylated peptide biotin-Ahx-[…] (C-terminus in amide form) was used, which can be purchased e.g. from the company Biosyntan (Berlin-Buch, Germany).
For the assay 50 nL of a 100 fold concentrated solution of the test compound in DMSO was pipetted into a black low volume 384 well microtiter plate (Greiner Bio-One, Frickenhausen, Germany), 2 μL of a solution of MKNK1 in aqueous assay buffer [50 mM HEPES pH 7.5, 5 mM MgCl2, 1.0 mM dithiothreitol, 0.005% (v/v) Nonidet-P40 (Sigma)] was added and the mixture was incubated for 15 min at 22° C. to allow pre-binding of the test compounds to the enzyme before the start of the kinase reaction. Then the kinase reaction was started by the addition of 3 μL of a solution of adenosine-tri-phosphate (ATP, 3.3 mM=>final conc. in the 5 μL assay volume is 2 mM) and substrate (0.1 μM=>final conc. in the 5 μL assay volume is 0.06 μM) in assay buffer and the resulting mixture was incubated for a reaction time of 30 min at 22° C. The concentration of MKNK1 was adjusted depending of the activity of the enzyme lot and was chosen appropriate to have the assay in the linear range, typical concentrations were in the range of 0.003 μg/mL. The reaction was stopped by the addition of 5 μL of a solution of TR-FRET detection reagents (5 nM streptavidine-XL665 [Cisbio Bioassays, Codolet, France] and 1 nM anti-ribosomal protein S6 (pSer236)-antibody from Invitrogen [#44921G] and 1 nM LANCE EU-W1024 labeled ProteinG [Perkin-Elmer, product no. AD0071]) in an aqueous EDTA-solution (100 mM EDTA, 0.1% (w/v) bovine serum albumin in 50 mM HEPES pH 7.5).
The resulting mixture was incubated for 1 h at 22° C. to allow the formation of complex between the phosphorylated biotinylated peptide and the detection reagents. Subsequently the amount of phosphorylated substrate was evaluated by measurement of the resonance energy transfer from the Eu-chelate to the streptavidine-XL. Therefore, the fluorescence emissions at 620 nm and 665 nm after excitation at 350 nm were measured in a TR-FRET reader, e.g. a Rubystar (BMG Labtechnologies, Offenburg, Germany) or a Viewlux (Perkin-Elmer). The ratio of the emissions at 665 nm and at 622 nm was taken as the measure for the amount of phosphorylated substrate.
(In general: In TR-FRET formats the signal depends on donor and acceptor labels being close together.)

T1 sequence (Q9BUB5 1-424 isoform Q9BUB5-2 T344D): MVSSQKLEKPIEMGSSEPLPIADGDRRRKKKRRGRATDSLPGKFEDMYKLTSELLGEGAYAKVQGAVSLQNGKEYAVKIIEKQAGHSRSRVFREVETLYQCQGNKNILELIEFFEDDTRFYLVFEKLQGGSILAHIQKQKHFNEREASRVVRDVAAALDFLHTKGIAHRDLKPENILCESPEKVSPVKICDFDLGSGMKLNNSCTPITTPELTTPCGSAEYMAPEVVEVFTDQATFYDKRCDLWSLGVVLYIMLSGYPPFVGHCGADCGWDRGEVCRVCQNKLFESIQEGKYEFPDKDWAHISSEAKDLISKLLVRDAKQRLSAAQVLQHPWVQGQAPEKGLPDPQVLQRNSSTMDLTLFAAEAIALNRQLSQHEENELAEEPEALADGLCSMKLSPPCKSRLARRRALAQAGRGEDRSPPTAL

In general, pIC50 refers to the negative decadic logarithm of the IC50, by convention in mol/L. Turning to `N#CC1CN(C(=O)[C@H]2CCc3c(sc4ncnc(Nc5cc(Cl)c6n(c5=O)C5(CCCC5)NC6=O)c34)C2)C1` [Example 88, 1-{(7S)-4-[(8′-Chloro-1′,5′-dioxo-1′,5′-dihydro-2′H-spiro[cyclopentane-1,3′-imidazo[1,5-a]pyridin]-6′-yl)amino]-5,6,7,8-tetrahydro[1]benzothieno[2,3-d]pyrimidine-7-carbonyl}azetidine-3-carbonitrile], the pIC50 is over 10.00.
As for `CN(C)[C@H]1CCN(C(=O)[C@H]2CCc3c(sc4ncnc(Nc5cc(Cl)c6n(c5=O)C5(CSC5)NC6=O)c34)C2)C1` [Example 105, 8-Chloro-6-({(7S)-7-[(3S)-3-(dimethylamino)pyrrolidine-1-carbonyl]-5,6,7,8-tetrahydro[1]benzothieno[2,3-d]pyrimidin-4-yl}amino)-2H-spiro[imidazo[1,5-a]pyridine-3,3′-thietane]-1,5-dione], the figure is 10.00.
The figure for `CN(C)[C@H]1CCN(C(=O)[C@H]2CCc3c(sc4ncnc(Nc5cc(Cl)c6n(c5=O)C5(CCCCC5)NC6=O)c34)C2)C1` [Example 78, 8′-Chloro-6′-{[(7S)-7-{[(3S)-3-(dimethylamino)pyrrolidin-1-yl]carbonyl}-5,6,7,8-tetrahydro[1]benzothieno[2,3-d]pyrimidin-4-yl]amino}-2′H-spiro[cyclohexane-1,3′-imidazo[1,5-a]pyridine]-1′,5′-dione] is 8.32; for `Cc1cc(Nc2ncnc3sc4c(c23)CC[C@H](C(=O)O)C4)c(=O)n2c1C(=O)NC2(C)C` [Example 15, (7S)-4-[(3,3,8-Trimethyl-1,5-dioxo-1,2,3,5-tetrahydroimidazo[1,5-a]pyridin-6-yl)amino]-5,6,7,8-tetrahydro[1]benzothieno[2,3-d]pyrimidine-7-carboxylic acid] it is 7.81; for `Cc1cc(Nc2ncnc3sc4c(c23)CC[C@H](C(=O)N(C)C)C4)c(=O)n2c1C(=O)NC21CCCC1` [Example 37, (7S)—N,N-Dimethyl-4-[(8′-methyl-1′,5′-dioxo-1′,5′-dihydro-2′H-spiro[cyclopentane-1,3′-imidazo[1,5-a]pyridin]-6′-yl)amino]-5,6,7,8-tetrahydro[1]benzothieno[2,3-d]pyrimidine-7-carboxamide] it is 9.15.
In the case of `Cc1cc(Nc2ncnc3sc4c(c23)CC[C@H](C(=O)N2CC(C#N)C2)C4)c(=O)n2c1C(=O)NC21CSC1` [Example 47, 1-({(7S)-4-[(8-Methyl-1,5-dioxo-1,5-dihydro-2H-spiro[imidazo[1,5-a]pyridine-3,3′-thietan]-6-yl)amino]-5,6,7,8-tetrahydro[1]benzothieno[2,3-d]pyrimidin-7-yl}carbonyl)azetidine-3-carbonitrile], the pIC50 is 9.10.
The figure for `CN(C)C(=O)[C@H]1CCc2c(sc3ncnc(Nc4cc(Cl)c5n(c4=O)C4(CCC4)NC5=O)c23)C1` [Example 95, (7S)-4-[(8′-Chloro-1′,5′-dioxo-1′,5′-dihydro-2′H-spiro[cyclobutane-1,3′-imidazo[1,5-a]pyridin]-6′-yl)amino]-N,N-dimethyl-5,6,7,8-tetrahydro[1]benzothieno[2,3-d]pyrimidine-7-carboxamide] is 8.72; for `Cc1cc(Nc2ncnc3sc4c(c23)CC[C@H](C(=O)N2CC[C@H](N(C)C)C2)C4)c(=O)n2c1C(=O)NC21CSC1` [Example 49, 6-{[(7S)-7-{[(3S)-3-(Dimethylamino)pyrrolidin-1-yl]carbonyl}-5,6,7,8-tetrahydro[1]benzothieno[2,3-d]pyrimidin-4-yl]amino}-8-methyl-2H-spiro[imidazo[1,5-a]pyridine-3,3′-thietane]-1,5-dione] it is 9.30; for `Cc1cc(Nc2ncnc3sc4c(c23)CC[C@H](C(=O)N2C[C@H]3C[C@@H]2CO3)C4)c(=O)n2c1C(=O)NC21CSC1` [Example 51, 8-Methyl-6-({(7S)-7-[(1R,4R)-2-oxa-5-azabicyclo[2.2.1]hept-5-ylcarbonyl]-5,6,7,8-tetrahydro[1]benzothieno[2,3-d]pyrimidin-4-yl}amino)-2H-spiro[imidazo[1,5-a]pyridine-3,3′-thietane]-1,5-dione] it is 9.40.
The figure for `Cc1cc(Nc2ncnc3sc4c(c23)CC[C@H](C(=O)N(C)C)C4)c(=O)n2c1C(=O)NC2(C)C` [Example 27, (7S)—N,N-Dimethyl-4-[(3,3,8-trimethyl-1,5-dioxo-1,2,3,5-tetrahydroimidazo[1,5-a]pyridin-6-yl)amino]-5,6,7,8-tetrahydro[1]benzothieno[2,3-d]pyrimidine-7-carboxamide] is 8.70; for `Cc1cc(Nc2ncnc3sc4c(c23)CC[C@H](C(=O)N2C[C@H]3C[C@@H]2CO3)C4)c(=O)n2c1C(=O)N[C@]21CC[C@@](O)(C(F)(F)F)CC1` [Example 64, (cis)-4-Hydroxy-8′-methyl-6′-({(7S)-7-[(1R,4R)-2-oxa-5-azabicyclo[2.2.1]hept-5-ylcarbonyl]-5,6,7,8-tetrahydro[1]benzothieno[2,3-d]pyrimidin-4-yl}amino)-4-(trifluoromethyl)-2′H-spiro[cyclohexane-1,3′-imidazo[1,5-a]pyridine]-1′,5′-dione] it is 8.42; for `CN(C)C(=O)[C@H]1CCc2c(sc3ncnc(Nc4cc(Cl)c5n(c4=O)C4(CSC4)NC5=O)c23)C1` [Example 102, (7S)-4-[(8-Chloro-1,5-dioxo-1,5-dihydro-2H-spiro[imidazo[1,5-a]pyridine-3,3′-thietan]-6-yl)amino]-N,N-dimethyl-5,6,7,8-tetrahydro[1]benzothieno[2,3-d]pyrimidine-7-carboxamide] it is 9.70.
The figure for `O=C1NC2(CSC2)n2c1c(Cl)cc(Nc1ncnc3sc4c(c13)CC[C@H](C(=O)O)C4)c2=O` [Example 101, (7S)-4-[(8-Chloro-1,5-dioxo-1,5-dihydro-2H-spiro[imidazo[1,5-a]pyridine-3,3′-thietan]-6-yl)amino]-5,6,7,8-tetrahydro[1]benzothieno[2,3-d]pyrimidine-7-carboxylic acid] is 8.74; for `NC(=O)[C@H]1CCc2c(sc3ncnc(Nc4cc(Cl)c5n(c4=O)C4(CSC4)NC5=O)c23)C1` [Example 119, (7S)-4-[(8-chloro-1,5-dioxo-1,5-dihydro-2H-spiro[imidazo[1,5-a]pyridine-3,3′-thietan]-6-yl)amino]-5,6,7,8-tetrahydro[1]benzothieno[2,3-d]pyrimidine-7-carboxamide] it is 9.05; for `C[C@@H]1COCCN1C(=O)[C@H]1CCc2c(sc3ncnc(Nc4cc(Cl)c5n(c4=O)C(C)(C)NC5=O)c23)C1` [Example 117, 8-chloro-3,3-dimethyl-6-({(7S)-7-[(3R)-3-methylmorpholine-4-carbonyl]-5,6,7,8-tetrahydro[1]benzothieno[2,3-d]pyrimidin-4-yl}amino)-2,3-dihydroimidazo[1,5-a]pyridine-1,5-dione] it is 9.40.
`Cc1cc(Nc2ncnc3sc4c(c23)CC[C@H](C(=O)N2CCN(C)[C@H](C)C2)C4)c(=O)n2c1C(=O)N[C@]21CC[C@@](O)(C(F)(F)F)CC1` [Example 83, (cis)-6′-{[(7S)-7-{[(3R)-3,4-Dimethylpiperazin-1-yl]carbonyl}-5,6,7,8-tetrahydro[1]benzothieno[2,3-d]pyrimidin-4-yl]amino}-4-hydroxy-8′-methyl-4-(trifluoromethyl)-2′H-spiro[cyclohexane-1,3′-imidazo[1,5-a]pyridine]-1′,5′-dione]: the negative-log IC50 (pIC50) is 8.82.
The figure for `Cc1cc(Nc2ncnc3sc4c(c23)CC[C@H](C(=O)O)C4)c(=O)n2c1C(=O)NC21CCCCC1` [Example 1, (7S)-4-[(8′-Methyl-1′,5′-dioxo-1′,5′-dihydro-2′H-spiro[cyclohexane-1,3′-imidazo[1,5-a]pyridin]-6′-yl)amino]-5,6,7,8-tetrahydro[1]benzothieno[2,3-d]pyrimidine-7-carboxylic acid] is 8.05.
The figure for `Cc1cc(Nc2ncnc3sc4c(c23)CC[C@H](C(=O)N2CCN(C)[C@@H](C)C2)C4)c(=O)n2c1C(=O)NC21CCCCC1` [Example 14, 6′-{[(7S)-7-{[(3S)-3,4-Dimethylpiperazin-1-yl]carbonyl}-5,6,7,8-tetrahydro[1]benzothieno[2,3-d]pyrimidin-4-yl]amino}-8′-methyl-2′H-spiro[cyclohexane-1,3′-imidazo[1,5-a]pyridine]-1′,5′-dione] is 9.10.
